Test: xn = mol fraction of the nth substance listed
Conditions: 100 kPa, Liquid; for mass density: Vibrating tube method; for viscosity: Concentric cylinders viscometry

C[n+]1ccn(CCO)c1.F[B-](F)(F)F [1-(2-hydroxyethyl)-3-methylimidazolium tetrafluoroborate] + CCCCn1cc[n+](C)c1.F[B-](F)(F)F
Conditions | mass density [kg/m3] | viscosity [mPa·s]
318.15 K, x1 = 0.101 | 1199.8 | –
318.15 K, x1 = 0.201 | 1213.5 | –
318.15 K, x1 = 0.3002 | 1227.8 | –
318.15 K, x1 = 0.4006 | 1243.6 | –
318.15 K, x1 = 0.5009 | 1258.1 | –
318.15 K, x1 = 0.5991 | 1274.1 | –
318.15 K, x1 = 0.7001 | 1293.8 | –
318.15 K, x1 = 0.8 | 1307.8 | –
318.15 K, x1 = 0.8995 | 1325.7 | –
318.15 K, x1 = 1 | 1343.7 | –
323.15 K, x1 = 0.1003 | – | 35.84
323.15 K, x1 = 0.101 | 1196.3 | –
323.15 K, x1 = 0.2001 | – | 35.27
323.15 K, x1 = 0.201 | 1209.9 | –
323.15 K, x1 = 0.2997 | – | 35.51
323.15 K, x1 = 0.3002 | 1224.2 | –
323.15 K, x1 = 0.3999 | – | 35.68
323.15 K, x1 = 0.4006 | 1240 | –
323.15 K, x1 = 0.4996 | – | 35.08
323.15 K, x1 = 0.5009 | 1254.5 | –
323.15 K, x1 = 0.5991 | 1270.4 | 35.69
323.15 K, x1 = 0.6997 | – | 35.78
323.15 K, x1 = 0.7001 | 1290.3 | –
323.15 K, x1 = 0.7999 | – | 36.02
323.15 K, x1 = 0.8 | 1304.1 | –
323.15 K, x1 = 0.8995 | 1322 | –
323.15 K, x1 = 0.8998 | – | 36.55
323.15 K, x1 = 1 | 1340.1 | 36.5
328.15 K, x1 = 0.1003 | – | 29.96
328.15 K, x1 = 0.101 | 1192.8 | –
328.15 K, x1 = 0.2001 | – | 29.52
328.15 K, x1 = 0.201 | 1206.5 | –
328.15 K, x1 = 0.2997 | – | 29.75
328.15 K, x1 = 0.3002 | 1220.7 | –
328.15 K, x1 = 0.3999 | – | 29.9
328.15 K, x1 = 0.4006 | 1236.4 | –
328.15 K, x1 = 0.4996 | – | 29.42
328.15 K, x1 = 0.5009 | 1250.9 | –
328.15 K, x1 = 0.5991 | 1266.8 | 29.91
328.15 K, x1 = 0.6997 | – | 29.95
328.15 K, x1 = 0.7001 | 1286.7 | –
328.15 K, x1 = 0.7999 | – | 30.13
328.15 K, x1 = 0.8 | 1300.5 | –
328.15 K, x1 = 0.8995 | 1318.3 | –
328.15 K, x1 = 0.8998 | – | 30.58
328.15 K, x1 = 1 | 1336.4 | 30.46
333.15 K, x1 = 0.1003 | – | 25.35
333.15 K, x1 = 0.101 | 1189.3 | –
333.15 K, x1 = 0.2001 | – | 25.03
333.15 K, x1 = 0.201 | 1203 | –
333.15 K, x1 = 0.2997 | – | 25.2
333.15 K, x1 = 0.3002 | 1217.2 | –
333.15 K, x1 = 0.3999 | – | 25.27
333.15 K, x1 = 0.4006 | 1232.9 | –
333.15 K, x1 = 0.4996 | – | 24.96
333.15 K, x1 = 0.5009 | 1247.6 | –
333.15 K, x1 = 0.5991 | 1263.2 | 25.36
333.15 K, x1 = 0.6997 | – | 25.41
333.15 K, x1 = 0.7001 | 1283.1 | –
333.15 K, x1 = 0.7999 | – | 25.55
333.15 K, x1 = 0.8 | 1296.8 | –
333.15 K, x1 = 0.8995 | 1314.7 | –
333.15 K, x1 = 0.8998 | – | 25.83
333.15 K, x1 = 1 | 1332.8 | 25.73
338.15 K, x1 = 0.1003 | – | 21.68
338.15 K, x1 = 0.101 | 1185.9 | –
338.15 K, x1 = 0.2001 | – | 21.42
338.15 K, x1 = 0.201 | 1199.5 | –
338.15 K, x1 = 0.2997 | – | 21.57
338.15 K, x1 = 0.3002 | 1213.7 | –
338.15 K, x1 = 0.3999 | – | 21.63
338.15 K, x1 = 0.4006 | 1229.4 | –
338.15 K, x1 = 0.4996 | – | 21.39
338.15 K, x1 = 0.5009 | 1244.1 | –
338.15 K, x1 = 0.5991 | 1259.7 | 21.68
338.15 K, x1 = 0.6997 | – | 21.72
338.15 K, x1 = 0.7001 | 1279.5 | –
338.15 K, x1 = 0.7999 | – | 21.81
338.15 K, x1 = 0.8 | 1293.2 | –
338.15 K, x1 = 0.8995 | 1311.1 | –
338.15 K, x1 = 0.8998 | – | 22.08
338.15 K, x1 = 1 | 1329.2 | 21.98
343.15 K, x1 = 0.1003 | – | 18.71
343.15 K, x1 = 0.101 | 1182.4 | –
343.15 K, x1 = 0.2001 | – | 18.51
343.15 K, x1 = 0.201 | 1196 | –
343.15 K, x1 = 0.2997 | – | 18.64
343.15 K, x1 = 0.3002 | 1210.3 | –
343.15 K, x1 = 0.3999 | – | 18.68
343.15 K, x1 = 0.4006 | 1225.9 | –
343.15 K, x1 = 0.4996 | – | 18.5
343.15 K, x1 = 0.5009 | 1240.6 | –
343.15 K, x1 = 0.5991 | 1256.2 | 18.74
343.15 K, x1 = 0.6997 | – | 18.78
343.15 K, x1 = 0.7001 | 1276 | –
343.15 K, x1 = 0.7999 | – | 18.84
343.15 K, x1 = 0.8 | 1289.7 | –
343.15 K, x1 = 0.8995 | 1307.5 | –
343.15 K, x1 = 0.8998 | – | 19.06
343.15 K, x1 = 1 | 1325.5 | 18.95

From the NIST ThermoML archive (doi:10.1016/j.jct.2014.05.016)
